Key:
[1] = target: T1, AMPA receptor (human GluR1 flip/stargazin expressed in CHO-K1 cells) (Homo sapiens, UniProt P42261); test: AMPA receptor function enhancing activity using calcium influx as index; assay type: cell-based; settings: change in fluorescence level in 3 min, 100% = 3 mM glutamic acid + 300 μM cyclothiazide, 0% = 3 mM glutamic acid only
T1 construct: expressed in transfected cells; host or cells: CHO-K1
Method in brief: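 CHO-K1 cells co-expressing human GluR1 flip and stargazin, Calcium 4 dye with 1.25 mM probenecid; compound added with glutamate (3 mM final), fluorescence change over 3 min. Activity (%) scaled between 3 mM glutamate alone (0%) and glutamate plus 300 μM cyclothiazide (100%).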

[2] = system: methamphetamine (MAP)-induced hyperlocomotion; test: methamphetamine (MAP)-induced hyperlocomotion; assay type: in vivo; settings: FIG. 1
[3] = system: MAP-induced hyperlocomotion in mice; test: Inhibition of methamphetamine (MAP)-induced hyperlocomotion; assay type: in vivo; settings: male ICR mice; compound 10 mg/kg p.o. 60 min before MAP 2 mg/kg s.c.; counts 0-120 min after MAP; Welch's t-test; FIG. 1
Description: Male ICR mice were supplied by CLEA Japan, Inc (Japan). After arrival to the vivarium, animals were allowed a minimum of 1 week for acclimation. They were housed under a 12:12-h light/dark cycle in a temperature- and humidity-controlled laboratory and allowed food and water ad libitum.
A test compound was suspended in 0.5% methylcellulose in distilled water and orally administered (p.o.). Methamphetamine (Dainippon Sumitomo Pharma Co., Ltd.) was dissolved in saline and subcutaneously administered (s.c.). All drugs were dosed in a volume of 10 mL/kg body weight for mice.
The widely used animal models of psychosis have been the measurement of the extent of hyperlocomotion induced by psychostimulants (e.g., amphetamine, cocaine, methamphetamine, MK-801 and phencyclidine) in rodents (Psychopharmacology 1999, vol. 145: 237-250). 2 compounds (A and B) were tested for its ability to antagonize MAP-induced hyperlocomotion in mice. Male ICR mice were habituated in the locomotor chambers with infrared sensors (BrainScienceIdea Co., Ltd. Japan) to the experiment. […] Locomotion activities were measured, and accumulated counts (120 min after administration of MAP) were calculated in each treatment group. All data were represented as means plus the standard errors of the means (n=3-8) and analyzed using Welch's t-test with significance set at ^$P<0.05, ^$$P<0.01 and ^$$$P<0.001. […]

T1 sequence (P42261 19-906 isoform P42261-2 limits assumed): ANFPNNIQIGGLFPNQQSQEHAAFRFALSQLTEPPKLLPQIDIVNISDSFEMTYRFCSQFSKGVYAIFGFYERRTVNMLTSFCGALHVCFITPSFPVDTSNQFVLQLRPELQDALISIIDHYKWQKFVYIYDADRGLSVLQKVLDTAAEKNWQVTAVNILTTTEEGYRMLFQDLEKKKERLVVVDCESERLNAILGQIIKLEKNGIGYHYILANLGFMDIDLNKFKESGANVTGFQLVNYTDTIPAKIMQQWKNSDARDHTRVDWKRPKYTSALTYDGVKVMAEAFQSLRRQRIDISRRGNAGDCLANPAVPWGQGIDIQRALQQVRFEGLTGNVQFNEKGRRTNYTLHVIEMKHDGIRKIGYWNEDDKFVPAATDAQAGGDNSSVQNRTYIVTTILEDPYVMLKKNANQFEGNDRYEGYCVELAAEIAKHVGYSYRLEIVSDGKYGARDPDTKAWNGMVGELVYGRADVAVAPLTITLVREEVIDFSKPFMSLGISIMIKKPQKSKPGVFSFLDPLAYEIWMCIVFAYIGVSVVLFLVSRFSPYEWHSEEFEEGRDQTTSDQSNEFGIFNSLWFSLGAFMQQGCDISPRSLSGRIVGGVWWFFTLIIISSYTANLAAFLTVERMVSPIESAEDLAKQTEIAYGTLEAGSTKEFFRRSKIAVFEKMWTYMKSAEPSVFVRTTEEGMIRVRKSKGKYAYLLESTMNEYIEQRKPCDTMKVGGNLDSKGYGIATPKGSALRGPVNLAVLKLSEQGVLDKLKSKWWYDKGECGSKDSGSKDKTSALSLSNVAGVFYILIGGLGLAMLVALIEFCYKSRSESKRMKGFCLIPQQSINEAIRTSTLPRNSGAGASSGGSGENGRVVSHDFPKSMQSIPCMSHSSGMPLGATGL
T1 sequence (Q9Y698 whole entry partner): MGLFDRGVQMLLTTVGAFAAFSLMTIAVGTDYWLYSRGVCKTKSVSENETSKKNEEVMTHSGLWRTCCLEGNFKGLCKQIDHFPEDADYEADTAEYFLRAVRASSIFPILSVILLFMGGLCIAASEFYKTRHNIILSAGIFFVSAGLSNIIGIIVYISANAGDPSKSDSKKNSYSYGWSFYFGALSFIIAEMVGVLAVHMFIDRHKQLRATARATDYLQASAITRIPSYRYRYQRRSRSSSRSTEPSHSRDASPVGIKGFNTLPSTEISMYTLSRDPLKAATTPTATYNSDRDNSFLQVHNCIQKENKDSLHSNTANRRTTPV

Row | SMILES | activity (%) [1] | also measured
1 | CS(=O)(=O)N[C@H]1CCOC[C@@H]1COc1ccc(-n2cc(C(F)(F)F)cn2)cc1 [Example 265, N-[(3R,4S)-3-({4-[4-(trifluoromethyl)-1H-pyrazol-1-yl]phenoxy}methyl)tetrahydro-2H-pyran-4-yl]methanesulfonamide] | 78% | 
2 | CS(=O)(=O)N[C@H]1CCOC[C@@H]1COc1ccc(-n2cc(Cl)cn2)cc1 [compound A, N-[(3R,4S)-3-{[4-(4-chloro-1H-pyrazol-1-yl)phenoxy]methyl}tetrahydro-2H-pyran-4-yl]methanesulfonamide] |  | inhibition of methamphetamine (MAP)-induced hyperlocomotion [2]: inhibition; inhibition of MAP-induced hyperlocomotion (accumulated locomotion counts) [3]: significant inhibition
3 | CCS(=O)(=O)N[C@H]1CCC(F)(F)C[C@@H]1COc1ccc(-n2nccc2C)cc1 (relative stereo) [Example 143, trans-N-[4,4-difluoro-2-{[4-(5-methyl-1H-pyrazol-1-yl)phenoxy]methyl}cyclohexyl]ethanesulfonamide] | 42% | 
4 | CCS(=O)(=O)N[C@H]1CCC(F)(F)C[C@@H]1COc1ccc(-n2cccn2)cc1 (relative stereo) [Example 130, trans-N-[4,4-difluoro-2-{[4-(1H-pyrazol-1-yl)phenoxy]methyl}cyclohexyl]ethanesulfonamide] | 90% | 
5 | CS(=O)(=O)N[C@H]1COCC[C@@H]1COc1ccc(-n2cc(Cl)cn2)cc1 [Example 206, N-[(3R,4S)-4-{[4-(4-chloro-1H-pyrazol-1-yl)phenoxy]methyl}tetrahydro-2H-pyran-3-yl]methanesulfonamide] | 74% | 
6 | CS(=O)(=O)N[C@@H]1CCOC[C@H]1COc1ccc(-c2ccc(Cl)cn2)cc1F (single isomer, unassigned) [Example 266, N-[(3S,4R)-3-{[4-(5-chloropyridin-2-yl)-2-fluorophenoxy]methyl}tetrahydro-2H-pyran-4-yl]methanesulfonamide or N-[(3R,4S)-3-{[4-(5-chloropyridin-2-yl)-2-fluorophenoxy]methyl}tetrahydro-2H-pyran-4-yl]methanesulfonamide] | 92% | 
7 | CCS(=O)(=O)N[C@H]1CCOC[C@@H]1COc1ccc(-n2cc(Cl)cn2)cc1 (relative stereo) [Example 140, trans-N-[3-{[4-(4-chloro-1H-pyrazol-1-yl)phenoxy]methyl}tetrahydro-2H-pyran-4-yl]ethanesulfonamide] | 90% | 
8 | CCS(=O)(=O)N[C@H]1CCOC[C@@H]1COc1ccc(-c2ccc(F)cn2)c(F)c1 (single isomer, unassigned) [Example 313, N-[(3R,4S)-3-{[3-fluoro-4-(5-fluoropyridin-2-yl)phenoxy]methyl}tetrahydro-2H-pyran-4-yl]ethanesulfonamide or N-[(3S,4R)-3-{[3-fluoro-4-(5-fluoropyridin-2-yl)phenoxy]methyl}tetrahydro-2H-pyran-4-yl]ethanesulfonamide] | 99% | 
9 | CCS(=O)(=O)N[C@H]1CCCC[C@@H]1COc1ccc(OC(F)F)cc1 (relative stereo) [Example 52, trans-N-[2-{[4-(difluoromethoxy)phenoxy]methyl}cyclo-hexyl]ethanesulfonamide] | 69% | 
10 | CCS(=O)(=O)N[C@H]1CCCC[C@@H]1COc1ccc(C(C)=O)cc1 (relative stereo) [Example 89, trans-N-{2-[(4-acetylphenoxy)methyl]cyclohexyl}ethane-sulfonamide] | 75% | 
11 | CCS(=O)(=O)N[C@H]1CCCC[C@@H]1COc1ccc(-n2cccn2)cc1 (relative stereo) [Example 60, trans-N-[2-{[4-(1H-pyrazol-1-yl)phenoxy]methyl}cyclohexyl]ethane-sulfonamide] | 80% | 
12 | CCS(=O)(=O)N[C@H]1CCN(C(C)=O)C[C@@H]1COc1ccc(CCC#N)cc1 (relative stereo) [Example 2, trans-N-[1-acetyl-3-{[4-(2-cyanoethyl)phenoxy]methyl}piperidin-4-yl]ethanesulfonamide] | 38% | 
13 | CCS(=O)(=O)N[C@H]1CCOC[C@@H]1COc1ccc(-n2cc(Cl)cn2)cc1F [Example 454, N-[(3R,4S)-3-{[4-(4-chloro-1H-pyrazol-1-yl)-2-fluorophenoxy]methyl}tetrahydro-2H-pyran-4-yl]ethanesulfonamide] | 89% | 
14 | CS(=O)(=O)N[C@H]1COCC[C@@H]1COc1ccc(-c2ncc(Cl)cn2)cc1 [Example 284, N-[(3R,4S)-4-{[4-(5-chloropyrimidin-2-yl)phenoxy]methyl}tetrahydro-2H-pyran-3-yl]methanesulfonamide] | 92% | 
15 | CCS(=O)(=O)N[C@H]1CCC[C@@H]1COc1ccc(C(C)C)cc1 (relative stereo) [Example 15, trans-N-[2-{[4-(1-methylethyl)phenoxy]methyl}cyclopentyl]ethanesulfonamide] | 88% | 
16 | O=S(=O)(N[C@H]1CCOC[C@@H]1COc1ccc(-c2ccc(F)cn2)c(F)c1)C1CC1 (racemic) [Example 243, N-[(3RS,4SR)-3-{[3-fluoro-4-(5-fluoropyridin-2-yl)phenoxy]methyl}tetrahydro-2H-pyran-4-yl]cyclopropanesulfonamide] | 96% | 
17 | CCS(=O)(=O)N[C@H]1CCOC[C@@H]1COc1ccc(C(C)C)cc1 (relative stereo) [Example 34, trans-N-{3-[(4-isopropylphenoxy)methyl]tetrahydro-2H-pyran-4-yl}ethanesulfonamide] | 77% | 
18 | CCS(=O)(=O)N[C@H]1CCC(F)(F)C[C@@H]1COc1ccc(N2CCCC2=O)cc1 [Example 482, N-[(1S,2S)-4,4-difluoro-2-{[4-(2-oxopyrrolidin-1-yl)phenoxy]methyl}cyclohexyl] ethanesulfonamide] | 99% | 
19 | O=S(=O)(N[C@H]1CCOC[C@@H]1COc1ccc(-n2cc(Cl)cn2)cc1)C1CC1 [Example 277, N-[(3R,4S)-3-{[4-(4-chloro-1H-pyrazol-1-yl)phenoxy]methyl}tetrahydro-2H-pyran-4-yl]cyclopropanesulfonamide] | 90% | 
20 | CS(=O)(=O)N[C@H]1CCC(F)(F)C[C@@H]1COc1ccc(-c2ccc(C#N)cn2)cc1 [Example 268, N-[(1S,2S)-2-{[4-(5-cyanopyridin-2-yl)phenoxy]methyl}-4,4-difluorocyclohexyl]methanesulfonamide] | 101% | 
21 | O=S(=O)(N[C@H]1CCOC[C@@H]1COc1ccc(-c2ncc(Cl)cc2F)cc1)C1CC1 (racemic) [Example 262, N-[(3RS,4SR)-3-{[4-(5-chloro-3-fluoropyridin-2-yl)phenoxy]methyl}tetrahydro-2H-pyran-4-yl]cyclopropanesulfonamide] | 89% | 
22 | CS(=O)(=O)N[C@H]1CCCO[C@@H]1COc1ccc(C2CC2)cc1 (racemic) [Example 5, 1,5-anhydro-6-O-(4-cyclopropylphenyl)-2,3,4-trideoxy-4-[(methylsulfonyl)amino]-DL-erythrohexitol] | 78% | 
23 | CCS(=O)(=O)N[C@H]1CCN(C(C)=O)C[C@@H]1COc1ccc(OC(F)F)cc1 (relative stereo) [Example 1, trans-N-[1-acetyl-3-{[4-(difluoromethoxy)phenoxy]methyl}piperidin-4-yl]ethanesulfonamide] | 46% | 
24 | CCS(=O)(=O)N[C@H]1CCN(C(C)=O)C[C@@H]1COc1ccc(C(C)C)cc1 (single isomer, unassigned) [Example 94, trans-N-[1-acetyl-3-{[4-(1-methylethyl)phenoxy]methyl}piperidin-4-yl]ethanesulfonamide] | 70% | 
25 | CCS(=O)(=O)N[C@H]1CCCO[C@@H]1COc1ccc(C2CC2)cc1 (racemic) [Example 4, 1,5-anhydro-6-O-(4-cyclopropylphenyl)-2,3,4-trideoxy-4-[(ethylsulfonyl)amino]-DL-erythrohexitol] | 86% | 
26 | CCS(=O)(=O)N[C@H]1COCC[C@@H]1COc1ccc(C(C)C)cc1 (single isomer, unassigned) [Example 110, trans-N-[4-{[4-(1-methylethyl)phenoxy]methyl}tetrahydro-2H-pyran-3-yl]ethanesulfonamide] | 88% | 
27 | CCS(=O)(=O)N[C@H]1CCOC[C@@H]1COc1ccc(OC(F)F)cc1 (single isomer, unassigned) [Example 124, trans-N-[3-{[4-(difluoromethoxy)phenoxy]methyl}tetrahydro-2H-pyran-4-yl]ethanesulfonamide] | 81% | 

Source: patent US9527807B2, “Sulfonamide derivative and use thereof” (Takeda Pharmaceutical Company Limited, priority 2011, dated 2016)
